In this assay the test system is Zucker Diabetic Fatty (ZDF) rats. Kind of assay: Oral glucose tolerance test in ZDF rats. As to conditions: oral glucose load. It counts as in vivo, rat. The method, then:
According to a first example an oral glucose tolerance test is performed in overnight fasted 9-weeks old male Zucker Diabetic Fatty (ZDF) rats (ZDF/Crl-Lepr^fa). A pre-dose blood sample is obtained by tail bleed. Blood glucose is measured with a glucometer, and the animals are randomized for blood glucose (n=5/group). Subsequently, the groups receive a single oral administration of either vehicle alone (0.5% aqueous hydroxyethylcellulose containing 3 mM HCl and 0.015% Polysorbat 80) or vehicle containing the SGLT2 inhibitor. The animals receive an oral glucose load (2 g/kg) 30 min after compound administration. Blood glucose is measured in tail blood 30 min, 60 min, 90 min, 120 min, and 180 min after the glucose challenge. Glucose excursion is quantified by calculating the reactive glucose AUC. The data are presented as mean ±SEM. The two-sided unpaired Student t-test is used for statistical comparison of the control group and the active groups.
Compound (I.9) (1-chloro-4-(β-D-glucopyranos-1-yl)-2-[4-((S)-tetrahydrofuran-3-yloxy)-benzyl]-benzene) was orally administered to ZDF rats at doses of 0.3 mg/kg, 3 mg/kg or 30 mg/kg body weight. Compound (I.9) reduced glucose excursion by 15% at 0.3 mg/kg (not significant), by 62% at 3 mg/kg (p<0.001) and by 89% at 30 mg/kg (p<0.001).

The source of these data is patent US20180289678A1, “PHARMACEUTICAL COMPOSITION, PHARMACEUTICAL DOSAGE FORM, PROCESS FOR THEIR PREPARATION, METHODS FOR TREATING AND USES THEREOF” (Boehringer Ingelheim International GmbH, priority 2009, published 2018).

In the case of `OC[C@H]1O[C@@H](c2ccc(Cl)c(Cc3ccc(O[C@H]4CCOC4)cc3)c2)[C@H](O)[C@@H](O)[C@@H]1O` [Compound (I.9), 1-chloro-4-(β-D-glucopyranos-1-yl)-2-[4-((S)-tetrahydrofuran-3-yloxy)-benzyl]-benzene], the “reduced glucose excursion (baseline-corrected glucose AUC)” value is, setting by setting: (0.3 mg/kg oral, not significant) 15%; (3 mg/kg oral, p<0.001) 62%; (30 mg/kg oral, p<0.001) 89%.
